Test results reported in patent US9708314B2, “Heterocyclic amide compound” (NISSAN CHEMICAL INDUSTRIES, LTD., priority 2013, dated 2017).

What was measured:
Format in all cases: in vivo
[1] = system: Echinochloa oryzacola Vasing.; assay: Test Example 1: herbicidal activity, application before weed generation in submerged conditions; conditions: Application herbicide amount 320 g/ha; Seventeenth Table
In short: (§1)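 Pre-emergence water-surface application under 4 cm flooding, same day as sowing, with rice transplanted at 2.5 leaf stage. Dose given as g/ha. Plants grown at 25° C. to 30° C. and rated three weeks later on a 0 (≤5%) to 5 (≥90%) herbicidal-ratio scale.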

Monochoria vaginalis = assay: as above; conditions: Application herbicide amount 320 g/ha; Seventeenth Table
In short: as §1

Scirpus juncoides = assay: as above; conditions: Application herbicide amount 320 g/ha; Seventeenth Table
In short: as §1

[2] = system: transplanted Oryza sativa; assay: Test Example 1: effect on crop, application before weed generation in submerged conditions; conditions: Application herbicide amount 320 g/ha; Seventeenth Table
In short: as §1

Abutilon theophrasti = assay: Test Example 4: herbicidal effect by application to foliage (diluvial soil, plastic box); conditions: application to foliage, application herbicide amount 320 g/ha
In short: (§2)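 Seeds sown in sterilized diluvial soil, covered ~1.5 cm, grown 14 days in greenhouse at 25° C. to 30° C. Emulsion formulation diluted in water to set rate (g/ha) and sprayed onto stems and leaves. Effect scored visually 3 weeks later on 0–5 scale (5 = ≥90% herbicidal ratio, 0 = ≤5%).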

Alopecurus myosuroides = assay: as above; conditions: application to foliage, application herbicide amount 320 g/ha
In short: as §2

Apera spica-venti. = assay: as above; conditions: application to foliage, application herbicide amount 320 g/ha
In short: as §2

Avena fatua = assay: as above; conditions: application to foliage, application herbicide amount 320 g/ha
In short: as §2

Chenopodium album = assay: as above; conditions: application to foliage, application herbicide amount 320 g/ha
In short: as §2

Digitaria ciliaris = assay: as above; conditions: application to foliage, application herbicide amount 320 g/ha
In short: as §2

[3] = system: Echinochloa crus-galli var. crus-galli; assay: as above; conditions: application to foliage, application herbicide amount 320 g/ha
In short: as §2

Galium spurium = assay: as above; conditions: application to foliage, application herbicide amount 320 g/ha
In short: as §2

Lolium multiflorum Lam. = assay: as above; conditions: application to foliage, application herbicide amount 320 g/ha
In short: as §2

Setaria viridis = assay: as above; conditions: application to foliage, application herbicide amount 320 g/ha
In short: as §2

Veronica persica = assay: as above; conditions: application to foliage, application herbicide amount 320 g/ha
In short: as §2

[4] = system: Beta vulgaris ssp. vulgaris; assay: Test Example 4: effect on crop by application to foliage (diluvial soil, plastic box); conditions: application to foliage, application herbicide amount 320 g/ha
In short: as §2

Brassica campestris L. = assay: as above; conditions: application to foliage, application herbicide amount 320 g/ha
In short: as §2

Glycine max = assay: as above; conditions: application to foliage, application herbicide amount 320 g/ha
In short: as §2

Triticum aestivum = assay: as above; conditions: application to foliage, application herbicide amount 320 g/ha
In short: as §2

Zea mays = assay: as above; conditions: application to foliage, application herbicide amount 320 g/ha
In short: as §2

[5] = system: directly sowed Oryza sativa; assay: as above; conditions: application to foliage, application herbicide amount 320 g/ha
In short: as §2

Compound	A: Echinochloa oryzicola Vasing. (herbicidal effect grade) [1]	C: Monochoria vaginalis (herbicidal effect grade) (Monochoria vaginalis)	B: Scirpus juncoides (herbicidal effect grade) (Scirpus juncoides)	a: transplanted Oryza sativa (effect on crop grade) [2]	M (Abutilon theophrasti) herbicidal effect (Abutilon theophrasti)	J (Alopecurus myosuroides) herbicidal effect (Alopecurus myosuroides)	L (Apera spica-venti.) herbicidal effect (Apera spica-venti.)	I (Avena fatua) herbicidal effect (Avena fatua)	O (Chenopodium album) herbicidal effect (Chenopodium album)	F (Digitaria ciliaris) herbicidal effect (Digitaria ciliaris)	H (Echinochloa crus-galli var. crus-galli) herbicidal effect [3]	Q (Galium spurium) herbicidal effect (Galium spurium)	K (Lolium multiflorum Lam.) herbicidal effect (Lolium multiflorum Lam.)	G (Setaria viridis) herbicidal effect (Setaria viridis)	R (Veronica persica) herbicidal effect (Veronica persica)	f (Beta vulgaris ssp. vulgaris) effect on crop [4]	g (Brassica campestris L.) effect on crop (Brassica campestris L.)	c (Glycine max) effect on crop (Glycine max)	e (Triticum aestivum) effect on crop (Triticum aestivum)	b (Zea mays) effect on crop (Zea mays)	other results
COc1ccccc1-c1nnc2c(C(=O)Nc3nnc(C)o3)ccc(C(F)(F)F)n12 [1-047]	4 (Herbicidal ratio of 70% or more and less than 90%)	2 (Herbicidal ratio of 20% or more and less than 40%)	3 (Herbicidal ratio of 40% or more and less than 70%)	1 (Herbicidal ratio of 5% or more and less than 20%)	5 (Herbicidal ratio of 90% or more (almost completely withered))	0 (Herbicidal ratio of 5% or less (almost no effect))	1 (Herbicidal ratio of 5% or more and less than 20%)	1 (Herbicidal ratio of 5% or more and less than 20%)	5 (Herbicidal ratio of 90% or more (almost completely withered))	4 (Herbicidal ratio of 70% or more and less than 90%)	5 (Herbicidal ratio of 90% or more (almost completely withered))	2 (Herbicidal ratio of 20% or more and less than 40%)	0 (Herbicidal ratio of 5% or less (almost no effect))	4 (Herbicidal ratio of 70% or more and less than 90%)	4 (Herbicidal ratio of 70% or more and less than 90%)	5 (Herbicidal ratio of 90% or more (almost completely withered))	4 (Herbicidal ratio of 70% or more and less than 90%)	1 (Herbicidal ratio of 5% or more and less than 20%)	0 (Herbicidal ratio of 5% or less (almost no effect))	0 (Herbicidal ratio of 5% or less (almost no effect))	d (directly sowed Oryza sativa) effect on crop [5]: 3 (Herbicidal ratio of 40% or more and less than 70%)
CCS(=O)(=O)c1nnc2c(C(=O)Nc3nnc(C)o3)ccc(C(F)(F)F)n12 [1-041]	3 (Herbicidal ratio of 40% or more and less than 70%)	3 (Herbicidal ratio of 40% or more and less than 70%)	3 (Herbicidal ratio of 40% or more and less than 70%)	0 (Herbicidal ratio of 5% or less (almost no effect))	5 (Herbicidal ratio of 90% or more (almost completely withered))	1 (Herbicidal ratio of 5% or more and less than 20%)	4 (Herbicidal ratio of 70% or more and less than 90%)	3 (Herbicidal ratio of 40% or more and less than 70%)	5 (Herbicidal ratio of 90% or more (almost completely withered))	5 (Herbicidal ratio of 90% or more (almost completely withered))	5 (Herbicidal ratio of 90% or more (almost completely withered))	3 (Herbicidal ratio of 40% or more and less than 70%)	2 (Herbicidal ratio of 20% or more and less than 40%)	4 (Herbicidal ratio of 70% or more and less than 90%)	4 (Herbicidal ratio of 70% or more and less than 90%)	5 (Herbicidal ratio of 90% or more (almost completely withered))	0 (Herbicidal ratio of 5% or less (almost no effect))	0 (Herbicidal ratio of 5% or less (almost no effect))	3 (Herbicidal ratio of 40% or more and less than 70%)	0 (Herbicidal ratio of 5% or less (almost no effect))	d (directly sowed Oryza sativa) effect on crop [5]: 2 (Herbicidal ratio of 20% or more and less than 40%)
Cc1nnc(NC(=O)c2ccc(C(F)(F)F)n3c(CC(=O)OC(C)C)nnc23)o1 [1-049]	5 (Herbicidal ratio of 90% or more (almost completely withered))	0 (Herbicidal ratio of 5% or less (almost no effect))	2 (Herbicidal ratio of 20% or more and less than 40%)	0 (Herbicidal ratio of 5% or less (almost no effect))	5 (Herbicidal ratio of 90% or more (almost completely withered))	2 (Herbicidal ratio of 20% or more and less than 40%)	3 (Herbicidal ratio of 40% or more and less than 70%)	0 (Herbicidal ratio of 5% or less (almost no effect))	5 (Herbicidal ratio of 90% or more (almost completely withered))	5 (Herbicidal ratio of 90% or more (almost completely withered))	5 (Herbicidal ratio of 90% or more (almost completely withered))	3 (Herbicidal ratio of 40% or more and less than 70%)	2 (Herbicidal ratio of 20% or more and less than 40%)	4 (Herbicidal ratio of 70% or more and less than 90%)	4 (Herbicidal ratio of 70% or more and less than 90%)	5 (Herbicidal ratio of 90% or more (almost completely withered))	4 (Herbicidal ratio of 70% or more and less than 90%)	4 (Herbicidal ratio of 70% or more and less than 90%)	1 (Herbicidal ratio of 5% or more and less than 20%)	0 (Herbicidal ratio of 5% or less (almost no effect))	d (directly sowed Oryza sativa) effect on crop [5]: 3 (Herbicidal ratio of 40% or more and less than 70%)
